Assay results: US20240360151A1 (SANOFI, priority 2023, published 2024)

Key:
[1] = target: T1, NLRP3 inflammasome (Homo sapiens, UniProt Q96P20); assay: IL-1β secretion assay (NLRP3 IC50) in LPS-primed, nigericin-activated THP-1 cells, HTRF; assay type: cell-based; settings: monocytic THP-1 cells; LPS 10 ng/mL 3 h priming, then compound + nigericin 10 μM 2 h; relative IC50, 10 concentrations, geometric mean
T1 construct: endogenous in cells; host or cells: THP-1 monocytic cells
Outline: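 IL-1β in supernatant read by HTRF after 2 h co-incubation of compound (0.1% DMSO, 10 concentrations, 1:3 series) with nigericin at 10 μM final, following 3 h LPS (10 ng/mL) priming of THP-1 monocytes at 37° C. Inhibition normalised to unactivated and no-compound controls; geometric-mean relative IC50 from 4-parameter logistic model.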

[2] = test system: NF-kB pathway (TNF-α secretion by THP-1 cells); assay: TNF-α secretion assay in LPS-stimulated THP-1 cells, Lumit immunoassay; assay type: cell-based, human; settings: Homo sapiens, THP-1, 3 h, monocytic THP-1 cells, LPS 10 ng/mL, relative IC50, 10 concentrations, geometric mean
Outline: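 TNF-α release was quantified directly in the cell plate by Lumit immunoassay after a 3-h, 10 ng/mL LPS trigger of compound-treated THP-1 cells (RPMI, 5% FBS). Percent inhibition versus no-compound and unstimulated controls fed a 4-parameter logistic fit over 10 concentrations, giving geometric-mean relative IC50.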

T1 sequence (Q96P20 whole entry): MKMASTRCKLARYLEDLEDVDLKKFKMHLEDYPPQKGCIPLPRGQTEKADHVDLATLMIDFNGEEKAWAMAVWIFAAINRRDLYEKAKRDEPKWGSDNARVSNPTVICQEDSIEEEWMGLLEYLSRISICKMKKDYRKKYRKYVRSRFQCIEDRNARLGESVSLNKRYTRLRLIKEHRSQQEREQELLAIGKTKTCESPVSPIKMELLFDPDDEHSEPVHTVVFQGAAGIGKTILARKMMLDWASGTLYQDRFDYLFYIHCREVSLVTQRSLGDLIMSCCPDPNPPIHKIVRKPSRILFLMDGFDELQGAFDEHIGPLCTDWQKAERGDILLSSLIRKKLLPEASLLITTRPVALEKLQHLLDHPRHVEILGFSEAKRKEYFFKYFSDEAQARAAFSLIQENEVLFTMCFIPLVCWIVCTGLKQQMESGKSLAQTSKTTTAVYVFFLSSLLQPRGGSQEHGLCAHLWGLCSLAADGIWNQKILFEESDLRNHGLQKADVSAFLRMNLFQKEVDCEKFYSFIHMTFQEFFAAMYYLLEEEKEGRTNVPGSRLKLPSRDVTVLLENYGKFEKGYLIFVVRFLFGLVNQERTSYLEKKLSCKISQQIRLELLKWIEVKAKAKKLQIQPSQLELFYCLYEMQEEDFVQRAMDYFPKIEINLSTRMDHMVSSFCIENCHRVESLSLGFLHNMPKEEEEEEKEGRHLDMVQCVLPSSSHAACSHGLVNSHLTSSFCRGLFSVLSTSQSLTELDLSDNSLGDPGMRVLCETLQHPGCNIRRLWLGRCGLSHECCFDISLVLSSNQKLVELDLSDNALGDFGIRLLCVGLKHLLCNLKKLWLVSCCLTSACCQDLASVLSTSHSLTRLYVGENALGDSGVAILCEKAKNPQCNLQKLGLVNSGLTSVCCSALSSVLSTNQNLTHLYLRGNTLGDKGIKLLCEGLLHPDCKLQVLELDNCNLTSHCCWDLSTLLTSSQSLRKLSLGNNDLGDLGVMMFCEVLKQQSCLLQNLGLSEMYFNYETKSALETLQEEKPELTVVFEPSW

Row | SMILES | IC50 [1] [nM] | IC50 [2] [nM]
1 | Cc1cc(C(F)(F)F)cc(O)c1-c1ccc(N2CCO[C@@H](CNC(=O)C(C)C)C2)nn1 [Example 276, N-[[(2S)-4-[6-[2-hydroxy-6-methyl-4-(trifluoromethyl)phenyl]pyridazin-3-yl]morpholin-2-yl]methyl]-2-methylpropanamide] | 515 | > 10000
2 | Cc1cc(Cl)cc(O)c1-c1ccc(N2CCO[C@H](CNC(=O)C(C)C)C2)nn1 [Example 279, N-[[(2R)-4-[6-(4-chloro-2-hydroxy-6-methylphenyl)pyridazin-3-yl]morpholin-2-yl]methyl]-2-methylpropanamide] | 277 | > 10000
3 | CC(=O)NC[C@H]1CN(c2ccc(-c3c(C)cc(Cl)cc3O)nn2)CCO1 [Example 280, N-[[(2S)-4-[6-(4-chloro-2-hydroxy-6-methylphenyl)pyridazin-3-yl]morpholin-2-yl]methyl]acetamide] | 76 | > 10000
4 | Cc1cc(Cl)cc(O)c1-c1ccc(N2CCO[C@@H](CNC(=O)C(C)C)C2)nn1 [Example 285, N-[[(2S)-4-[6-(4-chloro-2-hydroxy-6-methylphenyl)pyridazin-3-yl]morpholin-2-yl]methyl]-2-methylpropanamide] | 65 | > 10000
5 | Cc1ccc(-c2nnc(N3CCO[C@@H]4CCNC[C@@H]43)cc2C(F)F)c(O)c1 [Example 322, 2-[6-[(4aS,8aR)-2,3,4a,5,6,7,8,8a-octahydropyrido[4,3-b][1,4]oxazin-4-yl]-4-(difluoromethyl)pyridazin-3-yl]-5-methyl-phenol] | 80 | > 10000
6 | Cc1cc(N2CCO[C@H](CO)C2)nnc1-c1ccc2c(c1O)CCC2 [Example 324, 5-[6-[(2S)-2-(hydroxymethyl)morpholin-4-yl]-4-methyl-pyridazin-3-yl]indan-4-ol] | 56 | > 10000
7 | Cc1cc(Cl)cc(O)c1-c1ccc(N2CCO[C@@H](CF)C2)nn1 [Example 338, 5-chloro-2-[6-[(2R)-2-(fluoromethyl)morpholin-4-yl]pyridazin-3-yl]-3-methyl-phenol] | 46 | > 10000
8 | Cc1ccc(F)c(O)c1-c1ccc(N2CCO[C@@H]3CCN(C)C[C@@H]32)nn1 [Example 353, 2-[6-[(4aS,8aR)-6-methyl-3,4a,5,7,8,8a-hexahydro-2H-pyrido[4,3-b][1,4]oxazin-4-yl]pyridazin-3-yl]-6-fluoro-3-methyl-phenol] | 29 | > 10000
9 | Cc1cc(N2CCO[C@@H]3CCN(C)C[C@@H]32)nnc1-c1cccc(F)c1O [Example 356, 2-[6-[(4aS,8aR)-6-methyl-3,4a,5,7,8,8a-hexahydro-2H-pyrido[4,3-b][1,4]oxazin-4-yl]-4-methyl-pyridazin-3-yl]-6-fluoro-phenol] | 61 | > 10000
10 | CC(=O)N1CC[C@H]2OCCN(c3cc(C)c(-c4ccc(Cl)cc4O)nn3)[C@H]2C1 [Example 357, 1-[(4aS,8aR)-4-[6-(4-chloro-2-hydroxy-phenyl)-5-methyl-pyridazin-3-yl]-3,4a,5,7,8,8a-hexahydro-2H-pyrido[4,3-b][1,4]oxazin-6-yl]ethanone] | 48 | > 10000
11 | Cc1cc(C)c(-c2ccc(N3C[C@@H](CO)O[C@H](C)C3)nn2)c(O)c1 [Example 359, 2-[6-[(2S,6R)-2-(hydroxymethyl)-6-methyl-morpholin-4-yl]pyridazin-3-yl]-3,5-dimethyl-phenol] | 98 | > 10000
12 | Cc1cc(C)c(-c2ccc(N3C[C@H](CO)O[C@H](C)C3)nn2)c(O)c1 [Example 365, 2-[6-[(2R,6R)-2-(hydroxymethyl)-6-methyl-morpholin-4-yl]pyridazin-3-yl]-3,5-dimethyl-phenol] | 28 | > 10000
13 | Cc1cc(C(F)(F)F)cc(O)c1-c1nnc(N2C[C@@H](O)CC2=O)cc1C(F)F [Example 372, (4S)-1-[5-(difluoromethyl)-6-[2-hydroxy-6-methyl-4-(trifluoromethyl)phenyl]pyridazin-3-yl]-4-hydroxy-pyrrolidin-2-one] | 94 | > 10000

The remaining lines, values ahead:

Row | IC50 [1] [nM] | IC50 [2] [nM] | SMILES
14 | 1 | > 10000 | Cc1cc(C)c(-c2cc(C(F)F)c(N3CCO[C@@H]4CCN(C)C[C@@H]43)nn2)c(O)c1 [Example 291, 2-[6-[(4aS,8aR)-6-methyl-3,4a,5,7,8,8a-hexahydro-2H-pyrido[4,3-b][1,4]oxazin-4-yl]-5-(difluoromethyl)pyridazin-3-yl]-3,5-dimethyl-phenol]
15 | 2 | > 10000 | Cc1ccc(-c2nnc(N3CCO[C@@H]4CCN(C)C[C@@H]43)cc2C(F)F)c(O)c1 [Example 295, 2-[6-[(4aS,8aR)-6-methyl-3,4a,5,7,8,8a-hexahydro-2H-pyrido[4,3-b][1,4]oxazin-4-yl]-4-(difluoromethyl)pyridazin-3-yl]-5-methyl-phenol]
16 | 28 | > 10000 | Cc1cc(C(F)(F)F)cc(O)c1-c1ccc(N2C[C@@H](CO)O[C@H](C)C2)nn1 [Example 296, 2-[6-[(2S,6R)-2-(hydroxymethyl)-6-methyl-morpholin-4-yl]pyridazin-3-yl]-3-methyl-5-(trifluoromethyl)phenol]
17 | 11 | > 10000 | Cc1cc(C(F)(F)F)cc(O)c1-c1ccc(N2C[C@@H](CO)O[C@@H](C)C2)nn1 [Example 297, 2-[6-[(2S,6S)-2-(hydroxymethyl)-6-methyl-morpholin-4-yl]pyridazin-3-yl]-3-methyl-5-(trifluoromethyl)phenol]
18 | 3 | > 10000 | CN1CC[C@H]2OCCN(c3cc(C(F)F)c(-c4ccc(C(F)(F)F)cc4O)nn3)[C@H]2C1 [Example 298, 2-[6-[(4aS,8aR)-6-methyl-3,4a,5,7,8,8a-hexahydro-2H-pyrido[4,3-b][1,4]oxazin-4-yl]-4-(difluoromethyl)pyridazin-3-yl]-5-(trifluoromethyl)phenol]
19 | 15 | > 10000 | Cc1cccc(O)c1-c1ccc(N2CCO[C@H]3CCN(C)C[C@H]32)nn1 [Example 299, 2-[6-[(4aR,8aS)-6-methyl-3,4a,5,7,8,8a-hexahydro-2H-pyrido[4,3-b][1,4]oxazin-4-yl]pyridazin-3-yl]-3-methyl-phenol]
20 | 13 | > 10000 | Cc1cc(C(F)(F)F)cc(O)c1-c1ccc(N2C[C@H](CO)O[C@H](C)C2)nn1 [Example 302, 2-[6-[(2R,6R)-2-(hydroxymethyl)-6-methyl-morpholin-4-yl]pyridazin-3-yl]-3-methyl-5-(trifluoromethyl)phenol]
21 | 9 | > 10000 | Cc1cc(Cl)cc(O)c1-c1ccc(N2CCO[C@H]3CCNC[C@H]32)nn1 [Example 308, 2-[6-[(4aR,8aS)-2,3,4a,5,6,7,8,8a-octahydropyrido[4,3-b][1,4]oxazin-4-yl]pyridazin-3-yl]-5-chloro-3-methyl-phenol]
22 | 2 | > 10000 | Cc1cc(C)c(-c2ccc(N3CCO[C@@H]4CCN(C)C[C@@H]43)nn2)c(O)c1 [Example 311, 2-[6-[(4aS,8aR)-6-methyl-3,4a,5,7,8,8a-hexahydro-2H-pyrido[4,3-b][1,4]oxazin-4-yl]pyridazin-3-yl]-3,5-dimethyl-phenol]
23 | 18 | > 10000 | Cc1cc(C)c(-c2ccc(N3CCO[C@H]4CCNC[C@H]43)nn2)c(O)c1 [Example 314, 2-[6-[(4aR,8aS)-2,3,4a,5,6,7,8,8a-octahydropyrido[4,3-b][1,4]oxazin-4-yl]pyridazin-3-yl]-3,5-dimethyl-phenol]
24 | 3 | > 10000 | CCN1CC[C@H]2OCCN(c3cc(C(F)F)c(-c4ccc(C)cc4O)nn3)[C@H]2C1 [Example 323, 2-[6-[(4aS,8aR)-6-ethyl-3,4a,5,7,8,8a-hexahydro-2H-pyrido[4,3-b][1,4]oxazin-4-yl]-4-(difluoromethyl)pyridazin-3-yl]-5-methyl-phenol]
25 | 1 | > 10000 | CN1CC[C@H]2OCCN(c3cc(C(F)F)c(-c4ccc(Cl)cc4O)nn3)[C@H]2C1 [Example 350, 2-[6-[(4aS,8aR)-6-methyl-3,4a,5,7,8,8a-hexahydro-2H-pyrido[4,3-b][1,4]oxazin-4-yl]-4-(difluoromethyl)pyridazin-3-yl]-5-chloro-phenol]
26 | 20 | > 10000 | Cc1cccc(O)c1-c1ccc(N2CCO[C@@H]3CCN(C)C[C@@H]32)nn1 [Example 354, 2-[6-[(4aS,8aR)-6-methyl-3,4a,5,7,8,8a-hexahydro-2H-pyrido[4,3-b][1,4]oxazin-4-yl]pyridazin-3-yl]-3-methyl-phenol]
27 | 11 | > 10000 | CCc1cccc(O)c1-c1ccc(N2CCO[C@@H]3CCN(C)C[C@@H]32)nn1 [Example 358, 2-[6-[(4aS,8aR)-6-methyl-3,4a,5,7,8,8a-hexahydro-2H-pyrido[4,3-b][1,4]oxazin-4-yl]pyridazin-3-yl]-3-ethyl-phenol]
28 | 16 | > 10000 | CC(=O)N1CC[C@H]2OCCN(c3cc(C)c(-c4ccc(C(F)(F)F)cc4O)nn3)[C@H]2C1 [Example 363, 1-[(4aS,8aR)-4-[6-[2-hydroxy-4-(trifluoromethyl)phenyl]-5-methyl-pyridazin-3-yl]-3,4a,5,7,8,8a-hexahydro-2H-pyrido[4,3-b][1,4]oxazin-6-yl]ethanone]
29 | 1.1 | > 10000 | Cc1ccc(-c2nnc(N3CCO[C@@H]4CCN(C)C[C@@H]43)cc2C)c(O)c1 [Example 373, 2-[6-[(4aS,8aR)-6-methyl-3,4a,5,7,8,8a-hexahydro-2H-pyrido[4,3-b][1,4]oxazin-4-yl]-4-methyl-pyridazin-3-yl]-5-methyl-phenol]
